Reference: patent US20250213550A1, “COMPOUNDS AND METHODS FOR TREATING INFLAMMATORY BOWEL DISEASE” (Gilead Sciences, Inc., priority 2023, published 2025)
Read-outs that look alike come from different tables or passages of the source.

Test system: LPS-stimulated pERK in monocytes (TPL2 pathway)
Experiment: Ex vivo LPS-stimulated pERK in monocytes of whole blood after Compound 1 dosing (flow cytometry)
Design: species or system human
Conditions: for inhibition at 300 mg / inhibition at 600 mg / inhibition at 900 mg / inhibition at 75 mg: Homo sapiens, Monocyte; for inhibition at 75 mg: 75 mg QD multiple dose
Protocol: For Cohorts 1-4, whole blood PD sampling occurred relative to the dose of Compound 1 at the following time points: • Day 1: 0 pre-dose (≤5 min prior to dosing), 1, 2, 3, 4, 8, 12, 24 and 36 hours post-dose
For Cohorts 5-9, whole blood PD sampling occurred relative to the dose of Compound 1 at the following time points: • Day 1: 0 pre-dose (≤5 min prior to dosing), 1, 2, 3, 4, 8, 12, and 24 hours post-dose • Day 10: 0 pre-dose (≤5 min prior to dosing), 1, 2, 3, 4, 8, 12, 24, 36, 48, 72, 96, and 120 hours post-dose
Whole blood PD Samples were stimulated ex vivo with lipopolysaccharide (LPS) or phosphate buffered saline (PBS), and the phosphorylation of extracellular signal-related kinase (pERK) was detected in monocytes by flow cytometry.
Pharmacodynamic changes after single and multiple doses of Compound 1 were also investigated by monitoring, in whole blood samples, stimulated with either lipopolysaccharide (LPS) or PBS for 15 minutes at 37° C. Changes to the phosphorylation of extracellular signal-regulated kinases (pERK) was measured in monocytes by flow cytometry, defined as CD15−CD14+.
Pharmacodynamic parameters for Compound 1 were calculated as percent change in pERK signal relative to Day 1 pre-dose (baseline) for all evaluable participants.
Multiple Ascending Doses: Pharmacodynamic parameters after multiple doses of Compound 1 were also calculated as percent change in pERK signal relative to Day 1 pre-dose (baseline) for all evaluable participants.

**Q.** What does the source list for `Cn1ccc2c([C@@H](c3cn(C45CC(C4)C5)nn3)N(C(=O)OCOP(=O)(O)O)c3cc(Cl)c4ncc(C#N)c(NCC(C)(C)C)c4c3)cccc2c1=O` [Compound 1]?
**A.** inhibition at 300 mg (300 mg QD multiple dose, Day 1 1 hour, mean (SD), read-out: pERK Signal, % Inhibition): 89.1%; inhibition at 300 mg (300 mg QD multiple dose, Day 1 1 hour, median, read-out: pERK Signal, % Inhibition): 93.8%; inhibition at 300 mg (300 mg QD multiple dose, Day 1 3 hours, mean (SD), read-out: pERK Signal, % Inhibition): 95.7%; inhibition at 300 mg (300 mg QD multiple dose, Day 1 3 hours, median, read-out: pERK Signal, % Inhibition): 97.1%; inhibition at 300 mg (300 mg QD multiple dose, Day 1 12 hours, mean (SD), read-out: pERK Signal, % Inhibition): 75.3%; inhibition at 300 mg (300 mg QD multiple dose, Day 1 12 hours, median, read-out: pERK Signal, % Inhibition): 74.3%; inhibition at 300 mg (300 mg QD multiple dose, Day 10 1 hour, mean (SD), read-out: pERK Signal, % Inhibition): 96.8%; inhibition at 300 mg (300 mg QD multiple dose, Day 10 1 hour, median, read-out: pERK Signal, % Inhibition): 97.1%; inhibition at 300 mg (300 mg QD multiple dose, Day 10 3 hours, mean (SD), read-out: pERK Signal, % Inhibition): 98.3%; inhibition at 300 mg (300 mg QD multiple dose, Day 10 3 hours, median, read-out: pERK Signal, % Inhibition): 98.7%; inhibition at 300 mg (300 mg QD multiple dose, Day 10 12 hours, mean (SD), read-out: pERK Signal, % Inhibition): 94%; inhibition at 300 mg (300 mg QD multiple dose, Day 10 12 hours, median, read-out: pERK Signal, % Inhibition): 95.7%; inhibition at 300 mg (300 mg QD multiple dose, Day 10 24 hours, mean (SD), read-out: pERK Signal, % Inhibition): 92.2%; inhibition at 300 mg (300 mg QD multiple dose, Day 10 24 hours, median, read-out: pERK Signal, % Inhibition): 91.6%; inhibition at 600 mg (600 mg BID multiple dose, Day 1 1 hour, mean (SD), read-out: pERK Signal, % Inhibition): 79.9%; inhibition at 600 mg (600 mg BID multiple dose, Day 1 1 hour, median, read-out: pERK Signal, % Inhibition): 74.3%; inhibition at 600 mg (600 mg BID multiple dose, Day 1 3 hours, mean (SD), read-out: pERK Signal, % Inhibition): 99.9%; inhibition at 600 mg (600 mg BID multiple dose, Day 1 3 hours, median, read-out: pERK Signal, % Inhibition): 99.9%; inhibition at 600 mg (600 mg BID multiple dose, Day 1 12 hours, mean (SD), read-out: pERK Signal, % Inhibition): 84.2%; inhibition at 600 mg (600 mg BID multiple dose, Day 1 12 hours, median, read-out: pERK Signal, % Inhibition): 91%; inhibition at 600 mg (600 mg BID multiple dose, Day 10 1 hour, mean (SD), read-out: pERK Signal, % Inhibition): 99.5%; inhibition at 600 mg (600 mg BID multiple dose, Day 10 1 hour, median, read-out: pERK Signal, % Inhibition): 100%; inhibition at 600 mg (600 mg BID multiple dose, Day 10 3 hours, mean (SD), read-out: pERK Signal, % Inhibition): 100%; inhibition at 600 mg (600 mg BID multiple dose, Day 10 3 hours, median, read-out: pERK Signal, % Inhibition): 100%; inhibition at 600 mg (600 mg BID multiple dose, Day 10 12 hours, mean (SD), read-out: pERK Signal, % Inhibition): 100%; inhibition at 600 mg (600 mg BID multiple dose, Day 10 12 hours, median, read-out: pERK Signal, % Inhibition): 100%; inhibition at 600 mg (600 mg BID multiple dose, Day 10 24 hours, mean (SD), read-out: pERK Signal, % Inhibition): 103%; inhibition at 600 mg (600 mg BID multiple dose, Day 10 24 hours, median, read-out: pERK Signal, % Inhibition): 102%; inhibition at 900 mg (900 mg QD multiple dose, Day 1 1 hour, mean (SD), read-out: pERK Signal, % Inhibition): 88.9%; inhibition at 900 mg (900 mg QD multiple dose, Day 1 1 hour, median, read-out: pERK Signal, % Inhibition): 95%; inhibition at 900 mg (900 mg QD multiple dose, Day 1 3 hours, mean (SD), read-out: pERK Signal, % Inhibition): 99.8%; inhibition at 900 mg (900 mg QD multiple dose, Day 1 3 hours, median, read-out: pERK Signal, % Inhibition): 99.6%; inhibition at 900 mg (900 mg QD multiple dose, Day 1 12 hours, mean (SD), read-out: pERK Signal, % Inhibition): 95.2%; inhibition at 900 mg (900 mg QD multiple dose, Day 1 12 hours, median, read-out: pERK Signal, % Inhibition): 95.3%; inhibition at 900 mg (900 mg QD multiple dose, Day 10 1 hour, mean (N=1), read-out: pERK Signal, % Inhibition): 99.4%; inhibition at 900 mg (900 mg QD multiple dose, Day 10 1 hour, median (N=1), read-out: pERK Signal, % Inhibition): 99.4%; inhibition at 900 mg (900 mg QD multiple dose, Day 10 3 hours, mean (N=1), read-out: pERK Signal, % Inhibition): 99.6%; inhibition at 900 mg (900 mg QD multiple dose, Day 10 3 hours, median (N=1), read-out: pERK Signal, % Inhibition): 99.6%; inhibition at 900 mg (900 mg QD multiple dose, Day 10 12 hours, mean (N=1), read-out: pERK Signal, % Inhibition): 96.7%; inhibition at 900 mg (900 mg QD multiple dose, Day 10 12 hours, median (N=1), read-out: pERK Signal, % Inhibition): 96.7%; inhibition at 900 mg (900 mg QD multiple dose, Day 10 24 hours, mean (SD), read-out: pERK Signal, % Inhibition): 98.3%; inhibition at 900 mg (900 mg QD multiple dose, Day 10 24 hours, median, read-out: pERK Signal, % Inhibition): 98.5%; inhibition at 75 mg (24 h, Day 1 24 hours, mean (SD), read-out: pERK Signal, % Inhibition): 1%; inhibition at 75 mg (24 h, Day 1 24 hours, median, read-out: pERK Signal, % Inhibition): 4.4%; inhibition at 300 mg (24 h, 300 mg QD multiple dose, Day 1 24 hours, mean (SD), read-out: pERK Signal, % Inhibition): 72.9%; inhibition at 300 mg (24 h, 300 mg QD multiple dose, Day 1 24 hours, median, read-out: pERK Signal, % Inhibition): 71.5%; inhibition at 300 mg (24 h, 300 mg QD, steady state, 24 hours post-last dose, read-out: inhibition of LPS-stimulated pERK): > 90%; inhibition at 600 mg (24 h, 600 mg BID multiple dose, Day 1 24 hours, mean (SD), read-out: pERK Signal, % Inhibition): 97.6%; inhibition at 600 mg (24 h, 600 mg BID multiple dose, Day 1 24 hours, median, read-out: pERK Signal, % Inhibition): 99.5%; inhibition at 600 mg (24 h, 600 mg BID, steady state, 24 hours post-last dose, read-out: inhibition of LPS-stimulated pERK): > 90%; inhibition at 900 mg (24 h, 900 mg QD multiple dose, Day 1 24 hours, mean (SD), read-out: pERK Signal, % Inhibition): 90.2%; inhibition at 900 mg (24 h, 900 mg QD multiple dose, Day 1 24 hours, median, read-out: pERK Signal, % Inhibition): 89.9%; inhibition at 900 mg (24 h, 900 mg QD, steady state, 24 hours post-last dose, read-out: inhibition of LPS-stimulated pERK): > 90%; inhibition at 75 mg (240 h, Day 10 predose, mean (SD), read-out: pERK Signal, % Inhibition): 24.4%; inhibition at 75 mg (240 h, Day 10 predose, median, read-out: pERK Signal, % Inhibition): 41.3%; inhibition at 300 mg (240 h, 300 mg QD multiple dose, Day 10 predose, mean (SD), read-out: pERK Signal, % Inhibition): 93.5%; inhibition at 300 mg (240 h, 300 mg QD multiple dose, Day 10 predose, median, read-out: pERK Signal, % Inhibition): 93.4%; inhibition at 600 mg (240 h, 600 mg BID multiple dose, Day 10 predose, mean (SD), read-out: pERK Signal, % Inhibition): 98.6%; inhibition at 600 mg (240 h, 600 mg BID multiple dose, Day 10 predose, median, read-out: pERK Signal, % Inhibition): 100%; inhibition at 900 mg (240 h, 900 mg QD multiple dose, Day 10 predose, mean (N=1), read-out: pERK Signal, % Inhibition): 97.1%; inhibition at 900 mg (240 h, 900 mg QD multiple dose, Day 10 predose, median (N=1), read-out: pERK Signal, % Inhibition): 97.1%; inhibition of LPS-stimulated pERK in ex vivo whole blood samples (SAD and MAD cohorts): dose-dependent and reversible inhibition; time of peak inhibition of LPS-stimulated pERK (single oral doses, fasted, all dosages, post-dose): 3 hours
